Here are results for two substances from patent US20140017230A1, “CHRONIC LYMPHOCYTIC LEUKEMIA (CLL) BIOMARKERS” (HOFFMANN-LAROCHE INC., priority 2011, published 2014).

Series [1] relates to CLL patients. The experiment in a line: Phase III trial in CLL patients, R-FC vs FC: progression free survival (PFS) by pretreatment biomarker expression in CD19+ PBMC. The following applies: for Median PFS PTK2 Exon 1.0 ST / Median PFS PTK2 U133 plus2.0 / Median PFS PTK2 qRT-PCR / Median PFS miRNA151 DISCOVARRAY / Median PFS miRNA151 qRT-PCR / Median PFS miRNA409 DISCOVARRAY / Median PFS miRNA409 qRT-PCR: CLL patients; for Median PFS PTK2 Exon 1.0 ST / Median PFS PTK2 U133 plus2.0 / Median PFS PTK2 qRT-PCR: PTK2 expression in CD19+ cells. The class given is in vivo, human. How it is done:
Pretreatment patient samples were analyzed from an international, multicenter, open-label, phase III trial, randomizing CLL patients to receive R-FC (rituximab plus fludarabine/cyclophosphamide) or FC (fludarabine/cyclophosphamide) alone. […] The study protocol was approved by institutional review boards at participating centers and all patients gave written informed consent. Details on trial design and eligibility criteria have been described in Robak et al. J. Clin. Oncol. 28(10):1756-1765 (2010). Patients were selected on the availability of RNA and the written informed consent to participate in molecular genetic analyses of peripheral blood samples.
Pretreatment Peripheral Blood Mononuclear Cell (PBMC) samples positively selected for CD19+ cells were available from n=301 patients. CD19 separation was performed by magnetic bead separation according to the manufacturer's protocol (Miltenyi, Germany).
Pretreatment clinical features i.e demographics, prognostic markers (cytogenetic aberrations like del(17p), del(11q), ZAP70 and CD38 expression, IgVH status), progression free survival (PFS) were compared using the Fisher's exact, Mann-Whitney, or log-rank tests. A p-value of <0.05 was considered statistically significant.
Two approaches using a Cox regression model were used to identify genes and miRNA associated with survival. First approach considered the models below.
For the different tables and graphs appearing in this document where median PFS was computed, mRNA and miRNA signal intensities were dichotomized using the median value as a cutoff.
On the technique in general: Quantitative PCR measures a nucleic acid by following its amplification.

In series [2] the test system is 3′UTR luciferase reporter constructs in HeLa cells. Nature of the series: 3′UTR luciferase reporter assay with miRNA151 3p mimic vs scrambled mimic. The class given is cell-based. As to conditions: 10 nM mimic, 24 hours post-transfection, normalized to scrambled control. As for the experimental part: Predicted targets were downloaded from TARGETSCAN 5.1™ (http://www.targetscan.org/) and expression was extracted from the mRNA expression profiling data, irrespective of predicted site conservation. Anti-correlations with miRNAs were determined by comparing miRNA array and mRNA array data and computing Pearson correlation coefficients. […] Subsequently, 3′UTRs that met this threshold were cloned upstream into 3′UTR luciferase reporter constructs (Switchgear Genomics) and 100 ng of each construct was transfected into HeLa cells (ATCC) with 25 ng pRL-CMV, 10 nM miRNA151 3p mimic (Dharmacon) or scrambled mimic in 96-well plates. Luciferase activity was determined 24 hours post-transfection and all data were normalized to renilla luciferase transfection control and scrambled control mimic. Three biological replicates were performed. Statistical significance for a difference between scrambled control and miRNA151 3p mimic was determined by a 2-sided Student's t-test.
A general note: A reporter such as luciferase makes a cellular process visible.

Setting [3] is: miRNA signal < median miRNA signal.
Setting [4] is: miRNA signal > median miRNA signal.

Take fludarabine/cyclophosphamide [FC]: in series [1] (Array), the “HR for PFS, miRNA151 < median vs > median within treatment arm” value is reported as 0.99 and the “HR for PFS, miRNA409 < median vs > median within treatment arm” value is 1.12. Further, in series [1] (gene < median), the “Median PFS PTK2 Exon 1.0 ST” value was found to be 17.9 months, the “Median PFS PTK2 U133 plus2.0” value stood at 17.9 months and the “Median PFS PTK2 qRT-PCR” value came out at 17.9 months. In series [1] (gene > median), the “Median PFS PTK2 Exon 1.0 ST” value was 21.5 months, the “Median PFS PTK2 U133 plus2.0” value amounted to 21.5 months and the “Median PFS PTK2 qRT-PCR” value is listed as 21.5 months. In addition, in series [1] (setting [3]), the “Median PFS miRNA151 DISCOVARRAY” value amounted to 18 months, the “Median PFS miRNA151 qRT-PCR” value turned out to be 17.9 months, the “Median PFS miRNA409 DISCOVARRAY” value was 21.6 months and the “Median PFS miRNA409 qRT-PCR” value came to 18.3 months. For the same substance, in series [1] (setting [4]), the “Median PFS miRNA151 DISCOVARRAY” value amounted to 18.5 months, the “Median PFS miRNA151 qRT-PCR” value turned out to be 20.7 months, the “Median PFS miRNA409 DISCOVARRAY” value worked out at 18 months and the “Median PFS miRNA409 qRT-PCR” value was 18.3 months. Moreover, the “HR for PFS, PTK2 < median vs > median within treatment arm” value in series [1] (Exon 1.0 ST, CD19+ cells) is 0.86. Further, in series [1] (RT-PCR), the “HR for PFS, miRNA151 < median vs > median within treatment arm” value is 0.84 and the “HR for PFS, miRNA409 < median vs > median within treatment arm” value was determined as 1.03. In series [1] (U133 + 2, CD19+ cells), the “HR for PFS, PTK2 < median vs > median within treatment arm” value is 0.86. Further, the “HR for PFS, PTK2 < median vs > median within treatment arm” value in series [1] (qRT-PCR, CD19+ cells) is listed as 0.77.

Consider “miRNA151 3p: miRNA151 3p mimic (Dharmacon); miRNA comprising the sequence CUAGACUGAAGCUCCUUGAGG (SEQ ID NO: 1) (synthetic mimic duplex, passenger strand not listed, further chemistry not given here; listed as Homo sapiens)”, for which the “3′UTRs showing a statistically significant reduction in luciferase activity (5 out of the 18)” value in series [2] is given as 28%.
